Active and inactive are the calls of the source. No rule for the calls is given here.

The target of this experiment is Peptidyl-prolyl cis-trans isomerase FKBP1A (Homo sapiens) (UniProt P62942). Put plainly: small-molecule binding to FKBP12 – biophysical, NMR detection (AID 608). Particulars: purified FKBP12.
Peptidyl-prolyl cis-trans isomerase FKBP1A (Homo sapiens), sequence (P62942 whole entry, looked up): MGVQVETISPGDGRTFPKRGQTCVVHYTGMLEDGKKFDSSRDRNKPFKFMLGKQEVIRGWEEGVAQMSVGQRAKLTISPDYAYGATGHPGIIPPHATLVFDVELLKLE
As usually defined, the Kd is the concentration at which binding is half-saturated. With `COc1ccc([C@@H](C)C(=O)c2ccc(O)cc2O)cc1`, the Kd is > 4 mM (inactive). In the case of `COc1ccc(N2C(=N)C(C)(C)NC2=O)cc1` it was > 4 mM (inactive); in that of `Cn1nc(-c2cccs2)cc1N`, > 4 mM (inactive); in that of `Cc1cc(C)n2nc(N)nc2n1`, > 4 mM (inactive). The same measure for `COC(=O)c1cc2cc(N)ccc2s1`: > 4 mM (inactive); for `Cc1cc(C)n(CC(=O)NC2CCCCC2)n1`: > 4 mM (inactive). The same measure for `O=c1ccc(=O)n(CN2CCc3ccccc3C2)[nH]1`: > 4 mM (inactive); for `O=C1COc2ccc(C(=O)c3ccccc3)cc2CN1`: > 4 mM (inactive). `COc1ccc2nc(SCC(N)=O)[nH]c2c1`: the Kd is > 4 mM (inactive). The same measure for `O=C1CSC(=Nc2ccc(O)cc2)N1`: > 4 mM (inactive); for `CCN(CC)S(=O)(=O)c1ccc(F)cc1`: > 4 mM (inactive). In the case of `CC(=O)O[C@@H]1CC2C(C)(C)C(=O)C3OC3[C@]2(C)C2CC[C@@]3(C)[C@H](c4ccoc4)OC(=O)C4OC43[C@@]21C` (stereo not given in full), the Kd was > 4 mM (inactive). The same measure for `c1ccc2c(c1)[nH]c1cnccc12`: > 4 mM (inactive).

For `COC(=O)c1ccc2snnc2c1`, the Kd was > 4 mM (inactive). The same measure for `COc1ccc2nc(N)sc2c1`: > 4 mM (inactive); for `CCOC(=O)CC1NCCNC1=O` (stereo not given): > 4 mM (inactive). For the molecule `Cc1ccc(Nc2nc(N)nc(CC#N)n2)cc1`, the Kd is > 4 mM (inactive).

With `CC(=O)Nc1cccc(-c2nc3ccccc3c(=O)o2)c1`, the Kd is > 4 mM (inactive). The same measure for `CC(=O)c1sc2nc(N)nn2c1C`: > 4 mM (inactive); for `CCn1c(C)c(C(C)=O)c(N2CCN(C)CC2)nc1=S`: > 4 mM (inactive); for `CCC(=O)Nc1cccc(NC(C)=O)c1`: > 4 mM (inactive).

`CCOC(=O)c1snnc1-c1ccccc1`: the Kd is > 4 mM (inactive).

Regarding `C=C1C2CC[C@@]3(C)[C@H](c4ccoc4)OC(=O)C[C@]13O[C@H]1CC(=O)C(C)(C)[C@H](C(O)C(=O)OC)[C@@]21C` (stereo not given in full), the Kd is > 4 mM (inactive). In the case of `CCN1CCC(=NO)CC1` it was > 4 mM (inactive); in that of `CCCCCCCCCCCCCCC(C(=O)O)C(O)(CC(=O)OC)C(=O)O` (stereo not given), > 4 mM (inactive).

As to `Cc1nnc(N2CCN(Cc3ccccc3)CC2)[nH]c1=O`, the Kd was > 4 mM (inactive). The same measure for `CNC(=S)Nc1cccc(C(=O)O)c1`: > 4 mM (inactive); for `CNS(=O)(=O)c1cc(OC)ccc1OC`: > 4 mM (inactive); for `COc1ccc(S(=O)(=O)N2CCC(C(N)=O)CC2)cc1`: > 4 mM (inactive). The same measure for `O=C(NCCO)c1ccccc1I`: > 4 mM (inactive).

Take `NCc1cn2ccccc2n1`: the Kd was > 4 mM (inactive). In the case of `Cc1c(/C=N/O)cnn1C`, the Kd is > 4 mM (inactive). In the case of `O=C(NCc1ccco1)c1ccc(Br)s1` it was > 4 mM (inactive); in that of `O=C(O)Cn1cc(C(=O)C2CC2)c2ccccc21`, > 4 mM (inactive); in that of `CC(=O)OC[C@H]1O[C@@H](Oc2cc(OC(C)=O)c3c(=O)cc(-c4ccc(OC(C)=O)cc4)oc3c2)[C@H](OC(C)=O)[C@@H](OC(C)=O)[C@@H]1OC(C)=O`, > 4 mM (inactive). The same measure for `Cc1cccc(CO)n1`: > 4 mM (inactive); for `Oc1ccc(C(=S)N2CCCCC2)cc1Cl`: > 4 mM (inactive). As to `O=S(=O)(Nc1ccc(Cl)c(Cl)c1)N1CCOCC1`, the Kd entry was “inactive”. In the case of `S=c1[nH]ncn1-c1ccccc1` it was > 4 mM (inactive). The same measure for `O=C(O)Cn1c(C(F)(F)F)nc2ccccc21`: > 4 mM (inactive). In the case of `COc1ccc(NS(=O)(=O)c2ccc(N)cc2)nn1` it was > 4 mM (inactive); in that of `OCC1=Cc2ccccc2OC1`, > 4 mM (inactive); in that of `CC(=O)Nc1nnc(-c2ccccc2S(C)(=O)=O)o1`, > 4 mM (inactive). In the case of `O=C(Oc1ccc2c(c1)OCC2=O)c1ccccc1`, the Kd is > 4 mM (inactive). The same measure for `O=C(NCc1ccccc1F)c1cccs1`: > 4 mM (inactive); for `CC(=O)Oc1ccccc1N1C(=O)C=CC1=O`: > 4 mM (inactive). Take `CCOc1ccc(-c2n[nH]c(=S)n2C)cc1`: the Kd was > 4 mM (inactive). The same measure for `C/C=C/COc1nc2c(c(=O)n(C)c(=O)n2C)n1C`: > 4 mM (inactive).

For `CN1CCCC1C(=O)O` (stereo not given), the Kd was > 4 mM (inactive). The same measure for `N[C@@H](CCC(=O)N[C@@H](CS)C(=O)NCC(=O)O)C(=O)O`: > 4 mM (inactive); for `CCOC(=O)c1c(C)nc2ncccn12`: > 4 mM (inactive); for `NC(=O)CSc1nnc2ccc(-c3ccccn3)nn12`: > 4 mM (inactive). In the case of `O=C(C1CCNCC1)N1CCCCCC1` it was > 4 mM (inactive). The same measure for `NC(=O)NC(=O)Nc1ccc(Cl)cc1`: > 4 mM (inactive); for `Nc1ccc2[nH]ccc2c1`: > 4 mM (inactive). As for `OCc1ccc2ncccc2c1`, the Kd is > 4 mM (inactive).

In the case of `COc1ccccc1NC(=O)NC(N)=O`, the Kd is > 4 mM (inactive). The same measure for `Cc1cc(C)c2ccc[n+]([O-])c2c1O`: > 4 mM (inactive); for `CCOC(=O)c1c(C)cc(OC)cc1O`: > 4 mM (inactive); for `COc1ncnc(N)c1[N+](=O)[O-]`: > 4 mM (inactive). Regarding `O=C(OC[C@H]1O[C@H](OC(=O)c2cc(O)c(O)c(OC(=O)c3cc(O)c(O)c(O)c3)c2)[C@H](OC(=O)c2cc(O)c(O)c(OC(=O)c3cc(O)c(O)c(O)c3)c2)[C@@H](OC(=O)c2cc(O)c(O)c(OC(=O)c3cc(O)c(O)c(O)c3)c2)[C@@H]1OC(=O)c1cc(O)c(O)c(OC(=O)c2cc(O)c(O)c(O)c2)c1)c1cc(O)c(O)c(OC(=O)c2cc(O)c(O)c(O)c2)c1`, the Kd was > 4 mM (inactive). For `Cc1cc(O)cc(=O)n1CCCC(=O)O`, the Kd was > 4 mM (inactive).

Consider `Cc1cc(C(=O)N2CCN(S(C)(=O)=O)CC2)cs1`, for which the Kd is > 4 mM (inactive). The same measure for `Cc1oc(-c2ccccc2)cc1C(N)=O`: > 4 mM (inactive); for `CCC(=O)NC(=S)Nc1ccc(O)cc1`: > 4 mM (inactive); for `CC1CN(C(=O)c2ccncc2)CC(C)O1` (stereo not given): > 4 mM (inactive). In the case of `N#Cc1cnn(Cc2ccc(Cl)cc2)c1N` it was > 4 mM (inactive); in that of `Cc1nn2c(nc1=O)SCC2(O)c1ccccc1` (stereo not given), > 4 mM (inactive); in that of `Cn1cnc([N+](=O)[O-])c1Sc1ncnc2nc[nH]c12`, > 4 mM (inactive). In the case of `COC(=O)c1nc(-c2ccccc2)oc1N(C)C` it was > 4 mM (inactive). Consider `COc1c(F)c(F)c(-c2csc(N)n2)c(F)c1F`, for which the Kd was > 4 mM (inactive). The same measure for `COc1cc2c(cc1OC)[C@@H]1C(=O)c3ccc(OC)c(CC=C(C)C)c3O[C@@H]1CO2`: > 4 mM (inactive); for `CC(C)(O)P(C)(=O)c1ccccc1` (stereo not given): > 4 mM (inactive).

As for `O=C(O)CCC(=O)Nc1nnc(C(F)(F)F)s1`, the Kd was > 4 mM (inactive). In the case of `CCCCN1C(=O)N(C)C2NC(=O)NC21` (stereo not given) it was > 4 mM (inactive); in that of `O=C(c1sc2cccc(F)c2c1Cl)N1CCOCC1`, “inactive”.

For the molecule `CN1CCOc2cc(C(=O)O)ccc21`, the Kd is > 4 mM (inactive). In the case of `C[C@@H]1OC(O[C@H]2[C@H](OC(=O)[C@]34CCC(C)(C)CC3C3=CCC5[C@@]6(C)CC[C@H](OC7O[C@@H](C)[C@H](O[C@@H]8OC[C@@H](O)[C@H](O)[C@H]8O)[C@@H](O)[C@H]7O)C(C)(C)C6CC[C@@]5(C)[C@]3(C)CC4O)OC[C@H](O)[C@H]2O)[C@H](O)[C@H](O)[C@H]1O[C@@H]1O[C@H](CO)[C@@H](O)[C@H](O)[C@H]1O` (stereo not given in full) it was > 4 mM (inactive). In the case of `O=C(O)Cc1noc2ccccc12` it was > 4 mM (inactive); in that of `CC1=CC(=O)CC(C)(C)C1(O)/C=C/C(C)=C\C(=O)O` (stereo not given), > 4 mM (inactive); in that of `Nc1cncc(C(=O)O)c1`, > 4 mM (inactive). The same measure for `O=C(Nc1cccc(C(F)(F)F)c1)c1cccnc1`: > 4 mM (inactive); for `O=c1[nH]nc(Cc2ccncc2)c2ccccc12`: > 4 mM (inactive). Take `COc1ccc(-c2c(OC)c3c(OC)c4c(cc3oc2=O)OC(C)(C)C=C4)cc1`: the Kd was > 4 mM (inactive). In the case of `Cc1cc(C(=O)Nc2nnc(C(F)(F)F)s2)no1` it was > 4 mM (inactive); in that of `COC(=O)c1ccccc1N(C)S(C)(=O)=O`, > 4 mM (inactive).

For `O=C(C(Sc1ccccc1)c1ccccc1)N1CCOCC1` (stereo not given), the Kd is 0.146 mM. The same measure for `CC1=CC(=O)NC2C=CC=CC12` (stereo not given): > 4 mM (inactive); for `COC(=O)c1sc(N)nc1C`: > 4 mM (inactive). In the case of `CCOC(=O)c1c(C)nc2sccn12` it was > 4 mM (inactive); in that of `O=c1nc(N2CCCCC2)nc2n1CCO2`, > 4 mM (inactive). In the case of `Cc1c(N=CN2CCOCC2)c(=O)n(C)c(=O)n1C` it was > 4 mM (inactive); in that of `CC(CC(=O)O)n1cccn1` (stereo not given), > 4 mM (inactive); in that of `O=C(CNC(=O)c1ccc(F)cc1)NC1=NCCS1`, > 4 mM (inactive). For the molecule `O=S(=O)(O)c1cc[n+]([O-])cc1`, the Kd is > 4 mM (inactive). The same measure for `Cc1ccc(CNc2ccc(O)cc2)cc1`: > 4 mM (inactive); for `CC1(C)CCC(C)(C)c2cc(C(=O)O)ccc21`: > 4 mM (inactive); for `COc1cc(O)ccc1C(C)=O`: > 4 mM (inactive). In the case of `O=C(Oc1ccc(-c2nnco2)cc1)N1CCOCC1` it was > 4 mM (inactive). Regarding `CCSc1nc(C)c(CC)c(C)c1C(N)=O`, the Kd was > 4 mM (inactive).

For the origin of these results see PubChem BioAssay AID608 (Sanford-Burnham Center for Chemical Genomics, 2007).
